Results as given in patent US8192962B2, “Processes for detecting toxic substances” (Daikin Industries, Ltd., priority 2001, dated 2012).

Test system: Mitochondria-located protein genes
Test: DNA chip mRNA expression in yeast, mitochondria-located protein genes (Table 2)
Format: cell-based, Saccharomyces cerevisiae S288C
Details: cells incubated two hours with the chemical substance
Method in brief: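 S. cerevisiae S288C grown at 25° C in YPD were exposed in log phase for two hours to one toxic chemical at a growth-inhibiting, non-lethal concentration; untreated cells served as control. Poly(A) mRNA was reverse-transcribed with Cy3/Cy5-dUTP and hybridized to a whole-genome yeast DNA chip at 65° C for over 12 hours; values are fluorescence ratios versus untreated.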

With Oc1cc(Cl)c(Cl)cc1Cl [(6), 2,4,5-trichlorophenol] the “The level of expressed mRNA in the presence of chemical substance/The level of expressed mRNA in the absence of chemical substance” value (yeast gene YJR121W) was 1.5, the “The level of expressed mRNA in the presence of chemical substance/The level of expressed mRNA in the absence of chemical substance” value (yeast gene YKL003C) was 1.0 and the “The level of expressed mRNA in the presence of chemical substance/The level of expressed mRNA in the absence of chemical substance” value (yeast gene YKL016C) was 0.8. For the same compound, the “The level of expressed mRNA in the presence of chemical substance/The level of expressed mRNA in the absence of chemical substance” value (yeast gene YKL141W) was 1.2, the “The level of expressed mRNA in the presence of chemical substance/The level of expressed mRNA in the absence of chemical substance” value (yeast gene YKL142W) was 3.4 and the “The level of expressed mRNA in the presence of chemical substance/The level of expressed mRNA in the absence of chemical substance” value (yeast gene YKL148C) was 0.5. The “The level of expressed mRNA in the presence of chemical substance/The level of expressed mRNA in the absence of chemical substance” value (yeast gene YKL170W) was 1.5, the “The level of expressed mRNA in the presence of chemical substance/The level of expressed mRNA in the absence of chemical substance” value (yeast gene YKL194C) was 1.4 and the “The level of expressed mRNA in the presence of chemical substance/The level of expressed mRNA in the absence of chemical substance” value (yeast gene YKR066C) was 0.9. For the same compound, the “The level of expressed mRNA in the presence of chemical substance/The level of expressed mRNA in the absence of chemical substance” value (yeast gene YLL041C) was 1.2, the “The level of expressed mRNA in the presence of chemical substance/The level of expressed mRNA in the absence of chemical substance” value (yeast gene YLR038C) was 1.2 and the “The level of expressed mRNA in the presence of chemical substance/The level of expressed mRNA in the absence of chemical substance” value (yeast gene YLR259C) was 0.9. For the same compound, the “The level of expressed mRNA in the presence of chemical substance/The level of expressed mRNA in the absence of chemical substance” value (yeast gene YLR295C) was 1.1, the “The level of expressed mRNA in the presence of chemical substance/The level of expressed mRNA in the absence of chemical substance” value (yeast gene YLR304C) was 1.9 and the “The level of expressed mRNA in the presence of chemical substance/The level of expressed mRNA in the absence of chemical substance” value (yeast gene YLR348C) was 1.9. For the same compound, the “The level of expressed mRNA in the presence of chemical substance/The level of expressed mRNA in the absence of chemical substance” value (yeast gene YLR395C) was 0.4, the “The level of expressed mRNA in the presence of chemical substance/The level of expressed mRNA in the absence of chemical substance” value (yeast gene YML054C) was 1.8 and the “The level of expressed mRNA in the presence of chemical substance/The level of expressed mRNA in the absence of chemical substance” value (yeast gene YML120C) was 0.6. The “The level of expressed mRNA in the presence of chemical substance/The level of expressed mRNA in the absence of chemical substance” value (yeast gene YML129C) was 1.7, the “The level of expressed mRNA in the presence of chemical substance/The level of expressed mRNA in the absence of chemical substance” value (yeast gene YMR023C) was 1.1 and the “The level of expressed mRNA in the presence of chemical substance/The level of expressed mRNA in the absence of chemical substance” value (yeast gene YMR035W) was 1.5. The “The level of expressed mRNA in the presence of chemical substance/The level of expressed mRNA in the absence of chemical substance” value (yeast gene YMR083W) was 1.8, the “The level of expressed mRNA in the presence of chemical substance/The level of expressed mRNA in the absence of chemical substance” value (yeast gene YMR089C) was 1.2 and the “The level of expressed mRNA in the presence of chemical substance/The level of expressed mRNA in the absence of chemical substance” value (yeast gene YMR152W) was 7.5. The “The level of expressed mRNA in the presence of chemical substance/The level of expressed mRNA in the absence of chemical substance” value (yeast gene YMR203W) was 1.1, the “The level of expressed mRNA in the presence of chemical substance/The level of expressed mRNA in the absence of chemical substance” value (yeast gene YMR267W) was 1.4 and the “The level of expressed mRNA in the presence of chemical substance/The level of expressed mRNA in the absence of chemical substance” value (yeast gene YNL055C) was 2.6. The “The level of expressed mRNA in the presence of chemical substance/The level of expressed mRNA in the absence of chemical substance” value (yeast gene YNL071W) was 1.3, the “The level of expressed mRNA in the presence of chemical substance/The level of expressed mRNA in the absence of chemical substance” value (yeast gene YNL073W) was 0.5 and the “The level of expressed mRNA in the presence of chemical substance/The level of expressed mRNA in the absence of chemical substance” value (yeast gene YNL104C) was 0.8. The “The level of expressed mRNA in the presence of chemical substance/The level of expressed mRNA in the absence of chemical substance” value (yeast gene YNL256W) was 0.5, the “The level of expressed mRNA in the presence of chemical substance/The level of expressed mRNA in the absence of chemical substance” value (yeast gene YOL096C) was 1.3 and the “The level of expressed mRNA in the presence of chemical substance/The level of expressed mRNA in the absence of chemical substance” value (yeast gene YOR020C) was 2.3. For the same compound, the “The level of expressed mRNA in the presence of chemical substance/The level of expressed mRNA in the absence of chemical substance” value (yeast gene YOR037W) was 1.6, the “The level of expressed mRNA in the presence of chemical substance/The level of expressed mRNA in the absence of chemical substance” value (yeast gene YOR100C) was 1.2 and the “The level of expressed mRNA in the presence of chemical substance/The level of expressed mRNA in the absence of chemical substance” value (yeast gene YOR130C) was 1.6. For the same compound, the “The level of expressed mRNA in the presence of chemical substance/The level of expressed mRNA in the absence of chemical substance” value (yeast gene YOR142W) was 1.6, the “The level of expressed mRNA in the presence of chemical substance/The level of expressed mRNA in the absence of chemical substance” value (yeast gene YOR150W) was 0.9 and the “The level of expressed mRNA in the presence of chemical substance/The level of expressed mRNA in the absence of chemical substance” value (yeast gene YOR176W) was 0.9. For the same compound, the “The level of expressed mRNA in the presence of chemical substance/The level of expressed mRNA in the absence of chemical substance” value (yeast gene YOR187W) was 1.7, the “The level of expressed mRNA in the presence of chemical substance/The level of expressed mRNA in the absence of chemical substance” value (yeast gene YOR316C) was 0.9 and the “The level of expressed mRNA in the presence of chemical substance/The level of expressed mRNA in the absence of chemical substance” value (yeast gene YPL040C) was 1.1. For the same compound, the “The level of expressed mRNA in the presence of chemical substance/The level of expressed mRNA in the absence of chemical substance” value (yeast gene YPL134C) was 1.2, the “The level of expressed mRNA in the presence of chemical substance/The level of expressed mRNA in the absence of chemical substance” value (yeast gene YPL135W) was 1.3 and the “The level of expressed mRNA in the presence of chemical substance/The level of expressed mRNA in the absence of chemical substance” value (yeast gene YPL215W) was 0.7. The “The level of expressed mRNA in the presence of chemical substance/The level of expressed mRNA in the absence of chemical substance” value (yeast gene YPL262W) was 1.6, the “The level of expressed mRNA in the presence of chemical substance/The level of expressed mRNA in the absence of chemical substance” value (yeast gene YPR024W) was 1.0 and the “The level of expressed mRNA in the presence of chemical substance/The level of expressed mRNA in the absence of chemical substance” value (yeast gene YPR037C) was 0.9. For the same compound, the “The level of expressed mRNA in the presence of chemical substance/The level of expressed mRNA in the absence of chemical substance” value (yeast gene YPR047W) was 1.0 and the “The level of expressed mRNA in the presence of chemical substance/The level of expressed mRNA in the absence of chemical substance” value (yeast gene YPR134W) was 0.6.
